Measurements reported in publication PMC3601116, “Surfactant Protein D Modulates HIV Infection of Both T-Cells and Dendritic Cells” (PLoS ONE, 2013).

Experiments:
[1] = biological target: T1, Surfactant Protein D (SP-D) (Homo sapiens, UniProt P35247); assay: SPR competition of SP-D ([…]) binding to immobilised biotinylated gp120 IIIB; details: 5 mM CaCl2, SP-D in solution, lectin site (CRD), competes with gp120 glycans
T1 construct: gene SFTPD; dodecamer (four trimeric units)
T1 sequence (P35247 21-375): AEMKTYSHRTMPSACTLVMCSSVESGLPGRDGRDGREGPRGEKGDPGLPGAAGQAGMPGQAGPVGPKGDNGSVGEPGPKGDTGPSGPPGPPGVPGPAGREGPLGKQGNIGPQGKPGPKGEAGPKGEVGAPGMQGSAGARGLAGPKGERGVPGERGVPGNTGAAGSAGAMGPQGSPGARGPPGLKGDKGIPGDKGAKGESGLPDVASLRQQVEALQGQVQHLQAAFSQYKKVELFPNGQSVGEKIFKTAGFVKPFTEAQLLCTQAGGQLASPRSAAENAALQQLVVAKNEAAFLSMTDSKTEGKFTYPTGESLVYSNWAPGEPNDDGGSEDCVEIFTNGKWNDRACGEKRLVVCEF

[2] = biological target: recombinant gp120 IIIB (HIV strain IIIB) (UniProt P04578); assay: ELISA; competition: gp120 IIIB (2 µg/mL) immobilised; biotinylated soluble DC-SIGN, biotinylated soluble CD4 or CVN added together with SP-D (0-40 µg/mL); absorbance without competitor taken as 100%
[3] = biological target: T1, Surfactant Protein D (SP-D); assay: SPR competition of inactivated HIV BaL particles binding to immobilised SP-D; details: pH 7.4, calcium, 25 C, lectin site (CRD), competes with HIV glycans

Compound: OC[C@H]1OC(O)[C@@H](O)[C@@H](O)[C@@H]1O (stereo partly drawn) [mannose]
- IC50 ([1]; read-out: IC50): 7.8 mM

Compound: OC[C@H]1OC(O)[C@H](O)[C@@H](O)[C@H]1O (stereo partly drawn) [D-galactose]
- IC50 ([1]; read-out: IC50): 32.2 mM

Compound: OC[C@H]1O[C@H](O[C@H]2[C@H](O)[C@@H](O)C(O)O[C@@H]2CO)[C@H](O)[C@@H](O)[C@@H]1O (stereo partly drawn) [maltose]
- IC50 [1]: 6.5 mM

Compound: CC(=O)N[C@H]1C(O)O[C@H](CO)[C@@H](O)[C@@H]1O (stereo partly drawn) [GlcNAc]
- IC50 [1]: 22.9 mM

Compound: Surfactant Protein D (from UniProt P35247 21-375) (natural protein)
- maximum inhibition of sDC-SIGN binding to gp120 [2]: 80%

Compound: OC[C@H]1OC(O)[C@H](O)[C@@H](O)[C@@H]1O (stereo partly drawn) [glucose]
- IC50 [3]: 5.4 mM
